Consider nine compounds from patent US20180072997A1, “INHIBITORS OF HUMAN IMMUNODEFICIENCY VIRUS REPLICATION” (ViiV HEATHCARE UK (NO.5) LIMITED, priority 2015, published 2018).

One may read the CC50 as the concentration at which the toxic effect on the cells reaches its halfway point. The low end stands for harm at low concentration, the high end for better tolerance by the cells. By EC50 is commonly meant the concentration that produces a half-maximal response.

Molecules are shown by their SMILES.

The subject of one data set is uninfected MT2 cells. Put plainly: Compound cytotoxicity, XTT-based colorimetric assay. Type of data set: cell-based. To be noted: day 4, XTT. The gist of the method: (§1)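 Run under the antiviral-assay protocol but without virus. Viability was read on day 4 and CC50 values were derived from the readout.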
Background: Tetrazolium dyes change colour on reduction, which living cells bring about.

The subject of data set [1] is recombinant NL4-3 virus (Renilla luciferase in nef) in MT-2 cells. Briefly: whole plant or invertebrate. It is filed as cell-based, HIV. As to conditions: luciferase activity. An outline of the steps:
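MT-2 cells infected for 4-5 days with NL4-3 reporter virus (Renilla luciferase replacing part of nef, produced by transfection of 293T cells) in the presence of serial compound dilutions. Antiviral activity quantified by luciferase activity read with a live-cell substrate.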

Data set [2] in a line: Compound cytotoxicity, XTT-based colorimetric assay. To be noted: human, uninfected MT2 cells, day 4, XTT. Type of data set: cell-based. The gist of the method: as §1
Setting [3] is: MT-2 cells infected for 4-5 days with recombinant NL4-3 Renilla luciferase virus.
Where [4] appears, read: Renilla, NL43, MT-2 cells infected for 4-5 days with recombinant NL4-3 Renilla luciferase virus.

In the data set on uninfected MT2 cells, `COc1ccc(N(C)C(=O)[C@H](Cc2ccccc2)NC(=O)C=C(C)CC(=O)N[C@@H](Cc2ccccc2)C(=O)N(C)c2ccc(OC)cc2)cc1` (single isomer, unassigned) [Example 114] yielded a CC50 of 27.1 µM. In addition, the half-maximal effective concentration (EC50) in data set [1] (setting [3]) came to 1.78 µM.
`COc1ccc(N(C)C(=O)[C@H](Cc2ccccc2)NC(=O)C(C)n2c(=O)n(C(C)C(=O)N[C@@H](Cc3ccccc3)C(=O)N(C)c3ccc(OC)cc3)c3ccccc32)cc1` (single isomer, unassigned) [Example 134] gave a CC50 in the data set on uninfected MT2 cells of 10.8 µM. The EC50 in data set [1] (setting [3]) worked out at 0.82 µM.
For `C=CCCN(C(=O)[C@H](Cc1cc(F)cc(F)c1)NC(=O)NS(=O)(=O)N[C@@H](Cc1cc(F)cc(F)c1)C(=O)N(CCC=C)c1ccc2scnc2c1)c1ccc2scnc2c1` (single isomer, unassigned) [Example 142], in that order: 17.4 µM and 0.82 µM.
For `COc1ccc(N(C)C(=O)[C@H](Cc2cc(F)cc(F)c2)NC(=O)C(C)n2c(=O)n(C(C)C(=O)N[C@@H](Cc3cc(F)cc(F)c3)C(=O)N(C)c3ccc(OC)cc3)c3ccccc32)cc1` (single isomer, unassigned) [Example 133], in that order: 13.9 µM and 0.41 µM.
For `Cc1ccc(N(C)C(=O)[C@H](Cc2ccccc2)NC(=O)NS(=O)(=O)N[C@@H](Cc2ccccc2)C(=O)N(C)c2ccc(C)c(Cl)c2)cc1Cl` [Example 220], half-maximal cytotoxicity in data set [2] (CC50 at 4 days) was put at 16.7 µM. Moreover, the EC50 in data set [1] (setting [4]) amounted to 3.8 µM.
For `COc1ccc(N(C)C(=O)[C@H](Cc2ccccc2)NC(=O)CC(C)(C)CC(=O)N[C@@H](Cc2ccccc2)C(=O)N(C)c2ccc(OC)cc2)cc1` [Example 77], in that order: 9.6 µM and 3.98 µM.
For `COc1ccc(N(C)C(=O)[C@H](Cc2cc(F)cc(F)c2)NC(=O)NS(=O)(=O)N[C@@H](Cc2cc(F)cc(F)c2)C(=O)N(C)c2ccc(OC)c(F)c2)cc1F` [Example 233], it took 35.8 µM to reach half-maximal cytotoxicity in data set [2] (CC50 at 4 days). In addition, the concentration for a half-maximal effect (EC50) in data set [1] (setting [4]) came to 0.03 µM.
For `COc1ccc(N(C)C(=O)[C@H](Cc2ccccc2)NC(=O)CN(CCO)CC(=O)N[C@@H](Cc2ccccc2)C(=O)N(C)c2ccc(OC)cc2)cc1` [Example 29], in that order: 31.8 µM and 2.49 µM.
For `COc1ccc(N(C)C(=O)[C@H](Cc2ccccc2)NC(=O)NC(=O)N[C@@H](Cc2ccccc2)C(=O)N(C)c2ccc(OC)cc2)cc1` [Example 10], in that order: 10.5 µM and 4.71 µM.
